Reference: the OligoGym collection
Oligonucleotides are written 5' to 3', each unit as a sugar letter and its base; * is a phosphorothioate linkage, no mark a phosphodiester; rarer units and linkages stand in square brackets, end groups in braces. Plain capitals give the bases only. Oligonucleotides are given in HELM: sugar(base)linkage, 5' to 3'; d 2'-deoxyribose, r ribose, m 2'-O-methylribose, p phosphate. ss, as = sense and antisense strand; d = 2'-deoxy (DNA); r = 2'-OH (RNA)
Note: test concentration or dose not given here.

Each substance was assayed against UBE2L3 (assay: reporter assay of Huesken 2005). Conditions: siRNA.
With “sense rArArArCrArArArGrArUrCrUrArUrCrArCrCrCdTdT / antisense rGrGrGrUrGrArUrArGrArUrCrUrUrUrGrUrUrUdTdA” the normalised inhibition (eCFP-eYFP dual reporter) was 50.1%. Substance “sense rArArCrCrGrArCrCrArArGrUrArArUrCrCrArGdTdT / antisense rCrUrGrGrArUrUrArCrUrUrGrGrUrCrGrGrUrUdTdT” has a normalised inhibition (eCFP-eYFP dual reporter) of 66.6%. “sense rArArCrUrGrGrArArGrCrCrArGrCrArArCrCrAdTdT / antisense rUrGrGrUrUrGrCrUrGrGrCrUrUrCrCrArGrUrUdTdT” gave a normalised inhibition (eCFP-eYFP dual reporter) of 71.8%. Work on “sense rArArGrCrCrArGrCrArArCrCrArArArArCrCrGdTdT / antisense rCrGrGrUrUrUrUrGrGrUrUrGrCrUrGrGrCrUrUdCdC” yielded a normalised inhibition (eCFP-eYFP dual reporter) of 41.7%.

Each substance was assayed against CDC34 (assay: reporter assay of Huesken 2005). Conditions: siRNA.
“RNA1{r(G)p.r(A)p.r(C)p.r(G)p.r(A)p.r(G)p.r(G)p.r(G)p.r(C)p.r(G)p.r(A)p.r(U)p.r(C)p.r(U)p.r(A)p.r(U)p.r(A)p.r(C)p.r(A)p.d(T)p.d(T)}|RNA2{r(U)p.r(G)p.r(U)p.r(A)p.r(U)p.r(A)p.r(G)p.r(A)p.r(U)p.r(C)p.r(G)p.r(C)p.r(C)p.r(C)p.r(U)p.r(C)p.r(G)p.r(U)p.r(C)p.d(C)p.d(A)}$$$RNA1{StrandType:ss}|RNA2{StrandType:as}$” gave a normalised inhibition (eCFP-eYFP dual reporter) of 64.3%. “RNA1{r(G)p.r(A)p.r(C)p.r(G)p.r(A)p.r(G)p.r(G)p.r(G)p.r(C)p.r(U)p.r(C)p.r(A)p.r(G)p.r(A)p.r(C)p.r(C)p.r(U)p.r(C)p.r(U)p.d(T)p.d(T)}|RNA2{r(A)p.r(G)p.r(A)p.r(G)p.r(G)p.r(U)p.r(C)p.r(U)p.r(G)p.r(A)p.r(G)p.r(C)p.r(C)p.r(C)p.r(U)p.r(C)p.r(G)p.r(U)p.r(C)p.d(G)p.d(G)}$$$RNA1{StrandType:ss}|RNA2{StrandType:as}$” was tested, and the normalised inhibition (eCFP-eYFP dual reporter) was 51.7%. “RNA1{r(G)p.r(A)p.r(C)p.r(U)p.r(A)p.r(C)p.r(C)p.r(C)p.r(A)p.r(U)p.r(A)p.r(C)p.r(U)p.r(C)p.r(U)p.r(C)p.r(C)p.r(A)p.r(C)p.d(T)p.d(T)}|RNA2{r(G)p.r(U)p.r(G)p.r(G)p.r(A)p.r(G)p.r(A)p.r(G)p.r(U)p.r(A)p.r(U)p.r(G)p.r(G)p.r(G)p.r(U)p.r(A)p.r(G)p.r(U)p.r(C)p.d(G)p.d(A)}$$$RNA1{StrandType:ss}|RNA2{StrandType:as}$” gave a normalised inhibition (eCFP-eYFP dual reporter) of 65.9%. Work on “RNA1{r(G)p.r(A)p.r(G)p.r(U)p.r(A)p.r(C)p.r(U)p.r(G)p.r(C)p.r(G)p.r(U)p.r(G)p.r(A)p.r(A)p.r(G)p.r(A)p.r(C)p.r(C)p.r(A)p.d(T)p.d(T)}|RNA2{r(U)p.r(G)p.r(G)p.r(U)p.r(C)p.r(U)p.r(U)p.r(C)p.r(A)p.r(C)p.r(G)p.r(C)p.r(A)p.r(G)p.r(U)p.r(A)p.r(C)p.r(U)p.r(C)p.d(G)p.d(G)}$$$RNA1{StrandType:ss}|RNA2{StrandType:as}$” yielded a normalised inhibition (eCFP-eYFP dual reporter) of 73.7%. “RNA1{r(G)p.r(A)p.r(U)p.r(C)p.r(U)p.r(A)p.r(U)p.r(A)p.r(C)p.r(A)p.r(A)p.r(C)p.r(U)p.r(G)p.r(G)p.r(G)p.r(A)p.r(G)p.r(G)p.d(T)p.d(T)}|RNA2{r(C)p.r(C)p.r(U)p.r(C)p.r(C)p.r(C)p.r(A)p.r(G)p.r(U)p.r(U)p.r(G)p.r(U)p.r(A)p.r(U)p.r(A)p.r(G)p.r(A)p.r(U)p.r(C)p.d(G)p.d(C)}$$$RNA1{StrandType:ss}|RNA2{StrandType:as}$” gave a normalised inhibition (eCFP-eYFP dual reporter) of 41.7%. “RNA1{r(G)p.r(A)p.r(U)p.r(G)p.r(U)p.r(A)p.r(C)p.r(A)p.r(G)p.r(G)p.r(A)p.r(A)p.r(G)p.r(U)p.r(G)p.r(G)p.r(A)p.r(A)p.r(A)p.d(T)p.d(T)}|RNA2{r(U)p.r(U)p.r(U)p.r(C)p.r(C)p.r(A)p.r(C)p.r(U)p.r(U)p.r(C)p.r(C)p.r(U)p.r(G)p.r(U)p.r(A)p.r(C)p.r(A)p.r(U)p.r(C)p.d(A)p.d(C)}$$$RNA1{StrandType:ss}|RNA2{StrandType:as}$” gave a normalised inhibition (eCFP-eYFP dual reporter) of 82.9%. “RNA1{r(G)p.r(C)p.r(C)p.r(C)p.r(G)p.r(A)p.r(C)p.r(G)p.r(A)p.r(G)p.r(G)p.r(G)p.r(C)p.r(U)p.r(C)p.r(A)p.r(G)p.r(A)p.r(C)p.d(T)p.d(T)}|RNA2{r(G)p.r(U)p.r(C)p.r(U)p.r(G)p.r(A)p.r(G)p.r(C)p.r(C)p.r(C)p.r(U)p.r(C)p.r(G)p.r(U)p.r(C)p.r(G)p.r(G)p.r(G)p.r(C)p.d(G)p.d(C)}$$$RNA1{StrandType:ss}|RNA2{StrandType:as}$” gave a normalised inhibition (eCFP-eYFP dual reporter) of 33.6%. “RNA1{r(G)p.r(C)p.r(G)p.r(A)p.r(U)p.r(C)p.r(U)p.r(A)p.r(U)p.r(A)p.r(C)p.r(A)p.r(A)p.r(C)p.r(U)p.r(G)p.r(G)p.r(G)p.r(A)p.d(T)p.d(T)}|RNA2{r(U)p.r(C)p.r(C)p.r(C)p.r(A)p.r(G)p.r(U)p.r(U)p.r(G)p.r(U)p.r(A)p.r(U)p.r(A)p.r(G)p.r(A)p.r(U)p.r(C)p.r(G)p.r(C)p.d(C)p.d(C)}$$$RNA1{StrandType:ss}|RNA2{StrandType:as}$” gave a normalised inhibition (eCFP-eYFP dual reporter) of 74%. With “RNA1{r(G)p.r(C)p.r(G)p.r(C)p.r(C)p.r(U)p.r(C)p.r(A)p.r(A)p.r(G)p.r(U)p.r(U)p.r(C)p.r(C)p.r(C)p.r(C)p.r(A)p.r(U)p.r(C)p.d(T)p.d(T)}|RNA2{r(G)p.r(A)p.r(U)p.r(G)p.r(G)p.r(G)p.r(G)p.r(A)p.r(A)p.r(C)p.r(U)p.r(U)p.r(G)p.r(A)p.r(G)p.r(G)p.r(C)p.r(G)p.r(C)p.d(G)p.d(C)}$$$RNA1{StrandType:ss}|RNA2{StrandType:as}$” the normalised inhibition (eCFP-eYFP dual reporter) was 58%. With “RNA1{r(G)p.r(C)p.r(U)p.r(G)p.r(C)p.r(C)p.r(C)p.r(U)p.r(C)p.r(A)p.r(G)p.r(A)p.r(G)p.r(A)p.r(G)p.r(G)p.r(U)p.r(G)p.r(G)p.d(T)p.d(T)}|RNA2{r(C)p.r(C)p.r(A)p.r(C)p.r(C)p.r(U)p.r(C)p.r(U)p.r(C)p.r(U)p.r(G)p.r(A)p.r(G)p.r(G)p.r(G)p.r(C)p.r(A)p.r(G)p.r(C)p.d(T)p.d(C)}$$$RNA1{StrandType:ss}|RNA2{StrandType:as}$” the normalised inhibition (eCFP-eYFP dual reporter) was 39.3%. “RNA1{r(G)p.r(G)p.r(A)p.r(A)p.r(G)p.r(C)p.r(A)p.r(G)p.r(G)p.r(U)p.r(C)p.r(C)p.r(U)p.r(G)p.r(G)p.r(G)p.r(G)p.r(A)p.r(C)p.d(T)p.d(T)}|RNA2{r(G)p.r(U)p.r(C)p.r(C)p.r(C)p.r(C)p.r(A)p.r(G)p.r(G)p.r(A)p.r(C)p.r(C)p.r(U)p.r(G)p.r(C)p.r(U)p.r(U)p.r(C)p.r(C)p.d(G)p.d(G)}$$$RNA1{StrandType:ss}|RNA2{StrandType:as}$” gave a normalised inhibition (eCFP-eYFP dual reporter) of 58.4%. In the case of “RNA1{r(G)p.r(G)p.r(A)p.r(A)p.r(G)p.r(G)p.r(A)p.r(U)p.r(C)p.r(G)p.r(G)p.r(G)p.r(A)p.r(G)p.r(U)p.r(A)p.r(C)p.r(A)p.r(C)p.d(T)p.d(T)}|RNA2{r(G)p.r(U)p.r(G)p.r(U)p.r(A)p.r(C)p.r(U)p.r(C)p.r(C)p.r(C)p.r(G)p.r(A)p.r(U)p.r(C)p.r(C)p.r(U)p.r(U)p.r(C)p.r(C)p.d(C)p.d(C)}$$$RNA1{StrandType:ss}|RNA2{StrandType:as}$”, the normalised inhibition (eCFP-eYFP dual reporter) is reported as 56.5%. Substance “RNA1{r(G)p.r(G)p.r(A)p.r(G)p.r(U)p.r(A)p.r(C)p.r(A)p.r(C)p.r(A)p.r(G)p.r(A)p.r(C)p.r(A)p.r(U)p.r(C)p.r(A)p.r(U)p.r(C)p.d(T)p.d(T)}|RNA2{r(G)p.r(A)p.r(U)p.r(G)p.r(A)p.r(U)p.r(G)p.r(U)p.r(C)p.r(U)p.r(G)p.r(U)p.r(G)p.r(U)p.r(A)p.r(C)p.r(U)p.r(C)p.r(C)p.d(C)p.d(G)}$$$RNA1{StrandType:ss}|RNA2{StrandType:as}$” has a normalised inhibition (eCFP-eYFP dual reporter) of 76.6%. In the case of “RNA1{r(G)p.r(G)p.r(G)p.r(C)p.r(G)p.r(G)p.r(C)p.r(U)p.r(A)p.r(C)p.r(U)p.r(U)p.r(C)p.r(A)p.r(A)p.r(G)p.r(G)p.r(C)p.r(G)p.d(T)p.d(T)}|RNA2{r(C)p.r(G)p.r(C)p.r(C)p.r(U)p.r(U)p.r(G)p.r(A)p.r(A)p.r(G)p.r(U)p.r(A)p.r(G)p.r(C)p.r(C)p.r(G)p.r(C)p.r(C)p.r(C)p.d(T)p.d(C)}$$$RNA1{StrandType:ss}|RNA2{StrandType:as}$”, the normalised inhibition (eCFP-eYFP dual reporter) is reported as 29.8%. With “RNA1{r(G)p.r(G)p.r(G)p.r(G)p.r(C)p.r(U)p.r(G)p.r(C)p.r(A)p.r(G)p.r(G)p.r(A)p.r(A)p.r(G)p.r(A)p.r(G)p.r(C)p.r(C)p.r(G)p.d(T)p.d(T)}|RNA2{r(C)p.r(G)p.r(G)p.r(C)p.r(U)p.r(C)p.r(U)p.r(U)p.r(C)p.r(C)p.r(U)p.r(G)p.r(C)p.r(A)p.r(G)p.r(C)p.r(C)p.r(C)p.r(C)p.d(T)p.d(T)}$$$RNA1{StrandType:ss}|RNA2{StrandType:as}$” the normalised inhibition (eCFP-eYFP dual reporter) was 47.6%. “RNA1{r(G)p.r(G)p.r(U)p.r(G)p.r(G)p.r(A)p.r(C)p.r(G)p.r(C)p.r(G)p.r(G)p.r(A)p.r(G)p.r(C)p.r(G)p.r(U)p.r(G)p.r(A)p.r(C)p.d(T)p.d(T)}|RNA2{r(G)p.r(U)p.r(C)p.r(A)p.r(C)p.r(G)p.r(C)p.r(U)p.r(C)p.r(C)p.r(G)p.r(C)p.r(G)p.r(U)p.r(C)p.r(C)p.r(A)p.r(C)p.r(C)p.d(T)p.d(T)}$$$RNA1{StrandType:ss}|RNA2{StrandType:as}$” was tested, and the normalised inhibition (eCFP-eYFP dual reporter) was 53.4%. “RNA1{r(U)p.r(G)p.r(A)p.r(U)p.r(C)p.r(U)p.r(C)p.r(C)p.r(C)p.r(U)p.r(C)p.r(C)p.r(U)p.r(G)p.r(A)p.r(A)p.r(C)p.r(G)p.r(A)p.d(T)p.d(T)}|RNA2{r(U)p.r(C)p.r(G)p.r(U)p.r(U)p.r(C)p.r(A)p.r(G)p.r(G)p.r(A)p.r(G)p.r(G)p.r(G)p.r(A)p.r(G)p.r(A)p.r(U)p.r(C)p.r(A)p.d(C)p.d(A)}$$$RNA1{StrandType:ss}|RNA2{StrandType:as}$” was tested, and the normalised inhibition (eCFP-eYFP dual reporter) was 70%. In the case of “RNA1{r(U)p.r(G)p.r(G)p.r(C)p.r(A)p.r(C)p.r(C)p.r(C)p.r(U)p.r(A)p.r(A)p.r(C)p.r(A)p.r(U)p.r(C)p.r(U)p.r(A)p.r(C)p.r(G)p.d(T)p.d(T)}|RNA2{r(C)p.r(G)p.r(U)p.r(A)p.r(G)p.r(A)p.r(U)p.r(G)p.r(U)p.r(U)p.r(A)p.r(G)p.r(G)p.r(G)p.r(U)p.r(G)p.r(C)p.r(C)p.r(A)p.d(C)p.d(A)}$$$RNA1{StrandType:ss}|RNA2{StrandType:as}$”, the normalised inhibition (eCFP-eYFP dual reporter) is reported as 25.1%. “RNA1{r(U)p.r(G)p.r(G)p.r(C)p.r(C)p.r(G)p.r(A)p.r(G)p.r(U)p.r(A)p.r(C)p.r(U)p.r(G)p.r(C)p.r(G)p.r(U)p.r(G)p.r(A)p.r(A)p.d(T)p.d(T)}|RNA2{r(U)p.r(U)p.r(C)p.r(A)p.r(C)p.r(G)p.r(C)p.r(A)p.r(G)p.r(U)p.r(A)p.r(C)p.r(U)p.r(C)p.r(G)p.r(G)p.r(C)p.r(C)p.r(A)p.d(G)p.d(C)}$$$RNA1{StrandType:ss}|RNA2{StrandType:as}$” gave a normalised inhibition (eCFP-eYFP dual reporter) of 65.2%.
